According to patent US8097585B2, “Methods of treating inflammation by administration of heme oxygenase-1 and products of heme degradation” (priority 2002, dated 2012):
Where a name gives a salt, the structure may show the parent alone.

Key:
intestinal graft = test: Graft permeability, everted gut sac method with FD4; format: in vivo, LEW rats; settings: BV treated grafts
Protocol: Graft permeability. The preparation of everted gut sacs was performed in ice-cold modified Krebs-Henseleit bicarbonate buffer [KHBB (pH 7.4)] consisting of 10 mM HEPES, 137.0 mM NaCl, 5.36 mM KCl, 4.17 mM NaHCO3, 0.34 mM Na2HPO4, 0.44 mM KH2PO4, 0.41 mM MgSO47H2O, 0.49 mM MgCl26H20, 1.26 mM CaCl2, and 19.45 mM glucose. One end of the gut segment was ligated with 4-0 silk. The resulting gut sac was everted using a thin plastic rod. A groove was cut into the tip of a 5 ml plastic syringe and 1.5 mL of KHBB was drawn into the syringe. The open end of the everted gut sac was secured to the groove using 4-0 silk, and the intestine was gently distended by injecting the KHBB from the syringe. […] Following a 30 min incubation, the length of the sac was measured, and 1.0 mL of the fluid within the gut sac was collected. […] Subsequently, 300 ul of the supernatant was diluted with 3.0 mL of phosphate buffered saline, and the fluorescence of the solution was measured using a Perkin-Elmer LS-50 fluorescence spectrophotometer (Palo Alto, Calif.) at an excitation wave length of 492 nm (slit width=10.0 nm) and an emission wavelength of 515 nm (slit width=[…]).
Graft permeability. […] Graft permeability was determined by the everted gut sac method using 4 Kd Fluorescein isothiocyanate dextran.

MnSOD = test: Real time RT-PCR of graft muscularis after SITx, MnSOD; format: in vivo, LEW rats; settings: BV treatment
Protocol: Small Intestinal Transplantation. Orthotopic small intestinal transplantation (SITx) was performed in syngeneic Lewis rats. SITx with caval drainage was performed using a previously described procedure (Murase et al., in Handbook of Animal Models in Transplantation Research, Cramer et al., Eds. CRC Press, Boca Raton, Fla., pp. 203-213 (1994)). […] The graft was perfused via the aortic segment with 5 ml chilled Ringer's lactate solution, and the intestinal lumen was irrigated with 20 ml of cold saline solution containing 0.5% neomycin-sulfate (Sigma, St. Louis, Mo.). […]
SYBR green real time RT-PCR. The effects of administration of biliverdin on transplant-induced pro-inflammatory and anti-inflammatory gene expression were assessed in muscularis extracts by RT-PCR Biliverdin ([…], i.p.) was administered to both the donor and recipient three hours preoperatively. […] Equal aliquots (5 μg) of total RNA from each sample were quantified by spectrophotometry (wavelength […]) and aliquoted at a concentration of 40 ng/μl. Peak mRNA expression was quantified in duplicate by SYBR Green two-step, real-time RT-PCR. […] Real-time PCR data were plotted as the ΔRn fluorescence signal versus the cycle number. […] Quantification of mRNA expression was normalized to GAPDH and calculated relative to control using the comparative CT method (Schmittgen et al., J. Biochem. Biophys. Methods 46(1-2):69-8, 2000). […]

C=CC1=C(C)/C(=C/C2=NC(=C\c3[nH]c(/C=C4\NC(=O)C(C)=C4C=C)c(C)c3CCC(=O)O)/C(CCC(=O)O)=C2C)NC1=O [biliverdin, biliverdin dihydrochloride]
inhibition of the increase of intestinal permeability (intestinal graft): ~60% | MnSOD expression in the graft (MnSOD): significantly reduced
